ChEMBL document CHEMBL1136933 (J Med Chem, 2009)

Experiments:
[1] = molecular target: T1, Muscarinic acetylcholine receptor M5 (Homo sapiens) (UniProt P08912); assay: Activation of human muscarinic M5 receptor expressed in CHO cells coexpressing Gq protein assessed as potentiation of acetylcholine-induced intracellular Ca2+ mobilization at 30 uM relative to acetylcholine; assay type: functional, cell-based
T1 sequence (whole entry): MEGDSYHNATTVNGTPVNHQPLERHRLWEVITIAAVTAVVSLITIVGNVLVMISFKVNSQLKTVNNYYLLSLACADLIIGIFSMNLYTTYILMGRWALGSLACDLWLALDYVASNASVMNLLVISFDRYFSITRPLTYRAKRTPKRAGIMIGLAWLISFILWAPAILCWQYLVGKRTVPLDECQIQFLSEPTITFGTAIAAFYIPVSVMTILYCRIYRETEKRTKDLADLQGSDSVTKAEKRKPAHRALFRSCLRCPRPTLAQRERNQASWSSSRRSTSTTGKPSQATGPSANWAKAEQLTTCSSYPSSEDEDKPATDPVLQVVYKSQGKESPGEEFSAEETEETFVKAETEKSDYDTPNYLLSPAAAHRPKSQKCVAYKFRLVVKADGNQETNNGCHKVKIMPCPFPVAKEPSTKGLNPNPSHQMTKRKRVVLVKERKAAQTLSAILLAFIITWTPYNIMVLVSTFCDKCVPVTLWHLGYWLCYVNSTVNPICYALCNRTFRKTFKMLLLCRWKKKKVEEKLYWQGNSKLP

[2] = molecular target: T2, Muscarinic acetylcholine receptor M1 (Rattus norvegicus) (UniProt P08482); assay: Activation of rat muscarinic M1 receptor expressed in CHO cells co-expressing Gq protein assessed as potentiation of acetylcholine-induced intracellular Ca2+ mobilization at 30 uM relative to acetylcholine; assay type: functional, cell-based
T2 sequence (whole entry): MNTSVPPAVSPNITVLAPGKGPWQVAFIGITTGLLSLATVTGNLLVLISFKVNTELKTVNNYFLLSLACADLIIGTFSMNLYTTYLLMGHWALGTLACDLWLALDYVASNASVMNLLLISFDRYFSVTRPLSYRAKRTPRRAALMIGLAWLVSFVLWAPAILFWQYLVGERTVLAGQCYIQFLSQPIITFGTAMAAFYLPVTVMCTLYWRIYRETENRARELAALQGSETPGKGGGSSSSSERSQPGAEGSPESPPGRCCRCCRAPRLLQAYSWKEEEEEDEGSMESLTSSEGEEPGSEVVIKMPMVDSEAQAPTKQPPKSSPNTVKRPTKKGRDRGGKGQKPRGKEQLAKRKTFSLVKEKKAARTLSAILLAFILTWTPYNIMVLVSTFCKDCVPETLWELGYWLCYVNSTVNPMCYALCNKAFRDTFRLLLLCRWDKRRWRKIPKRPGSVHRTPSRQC

Row | SMILES | %max [1] | %max [2]
1 | O=C1C(=O)N(Cc2c(F)cccc2F)c2c(Cl)cccc21 | 23.6% | 38.8%
2 | O=C1C(=O)N(Cc2ccc(OC(F)(F)F)cc2)c2ccc(F)cc21 | 58.4% | 59.8%
3 | O=C1C(=O)N(Cc2ccccc2C(F)(F)F)c2c(Cl)ccc(Cl)c21 | 16% | 21.1%
4 | O=C1C(=O)N(Cc2c(F)cccc2F)c2c(F)cccc21 | 25.1% | 33.1%
5 | O=C1C(=O)N(Cc2ccccc2Cl)c2c(F)cccc21 | 20.3% | 18.5%
6 | O=C1C(=O)N(Cc2ccccc2C(F)(F)F)c2ccc(OC(F)(F)F)cc21 | 56.5% | 22.6%
7 | COc1cccc(CN2C(=O)C(=O)c3cc(F)ccc32)c1 | 41.6% | 32.3%
8 | O=C1C(=O)N(Cc2ccc(Br)cc2)c2ccc(Cl)cc21 | 32% | 26.1%
9 | O=C1C(=O)N(Cc2ccc(OC(F)(F)F)cc2)c2ccc(Cl)cc21 | 47.1% | 31.3%
10 | COc1ccc(CN2C(=O)C(=O)c3c(Cl)ccc(Cl)c32)cc1 | 11.7% | 18.6%
11 | O=C1C(=O)N(Cc2ccc(Br)cc2F)c2c(F)cccc21 | 46.3% | 39.2%
12 | O=C1C(=O)N(Cc2ccccc2C(F)(F)F)c2ccc(Cl)cc21 | 48.4% | 29.6%
13 | O=C1C(=O)N(Cc2ccc(Br)cc2F)c2ccc(F)cc21 | 64% | 70.5%
14 | COc1ccc(CN2C(=O)C(=O)c3cc(C)ccc32)cc1 | 21.2% | 14.1%
15 | O=C1C(=O)N(Cc2ccc(OC(F)(F)F)cc2)c2c(F)cccc21 | 57.7% | 51.8%
16 | O=C1C(=O)N(Cc2ccc(C(F)(F)F)cc2)c2ccc(Cl)cc21 | 67.4% | 44.1%
17 | O=C1C(=O)N(Cc2ccccc2F)c2ccccc21 | 24.5% | 38.9%
18 | COc1ccc(CN2C(=O)C(=O)c3cc(F)ccc32)cc1 | 38.3% | 41.1%
19 | O=C1C(=O)N(Cc2ccccc2C(F)(F)F)c2ccccc21 | 40.2% | 37.9%

Row | SMILES | %max [1] | %max [2]
20 | COc1cccc(CN2C(=O)C(=O)c3cc(Cl)ccc32)c1 | 27.9% | 16.9%
21 | O=C1C(=O)N(Cc2ccc(Br)cc2F)c2c(Cl)ccc(Cl)c21 | 12.4% | 9.93%
22 | O=C1C(=O)N(Cc2c(F)cccc2F)c2ccc(F)cc21 | 31.1% | 27.6%
23 | O=C1C(=O)N(Cc2ccccc2F)c2ccc(F)cc21 | 46.2% | 40.1%
24 | Cc1ccccc1CN1C(=O)C(=O)c2c(Cl)ccc(Cl)c21 | 16.4% | 13.7%
25 | O=C1C(=O)N(Cc2ccc(Br)cc2F)c2ccccc21 | 48.5% | 49.2%
26 | O=C1C(=O)N(Cc2ccc(OC(F)(F)F)cc2)c2c(Cl)ccc(Cl)c21 | 23.2% | 16%
27 | O=C1C(=O)N(Cc2ccc(F)cc2F)c2ccccc21 | 40.4% | 44.8%
28 | COc1cccc(CN2C(=O)C(=O)c3cccc(F)c32)c1 | 52% | 51.1%
29 | O=C1C(=O)N(Cc2ccc(Br)cc2)c2c(Cl)ccc(Cl)c21 | 20.7% | 12.1%
30 | O=C1C(=O)N(Cc2ccc(OC(F)(F)F)cc2)c2ccccc21 | 60.5% | 54.7%
31 | O=C1C(=O)N(Cc2ccc(F)cc2F)c2c(F)cccc21 | 68.9% | 64.4%
32 | O=C1C(=O)N(Cc2ccc(Br)cc2)c2c(Cl)cccc21 | 44.3% | 29.9%
33 | Cc1ccc2c(c1)C(=O)C(=O)N2Cc1ccccc1C(F)(F)F | 30.6% | 17.8%
34 | Cc1ccccc1CN1C(=O)C(=O)c2cccc(Cl)c21 | 32.6% | 32.8%
35 | COc1ccc(CN2C(=O)C(=O)c3cccc(F)c32)cc1 | 44.4% | 54.6%
36 | COc1ccc(CN2C(=O)C(=O)c3cc(Cl)ccc32)cc1 | 32.6% | 20.3%
37 | O=C1C(=O)N(Cc2ccccc2Cl)c2c(Cl)ccc(Cl)c21 | 18.9% | 13.1%
38 | O=C1C(=O)N(Cc2ccccc2Cl)c2ccccc21 | 42% | 43.4%
